ChEMBL document CHEMBL4219095, “Synthesis and biological evaluation of 4,6-diaryl-2-pyrimidinamine derivatives as anti-breast cancer agents” (Bioorg Med Chem Lett, 2018)
The source made the active and inactive calls. No cut-off for these calls is given here.

Columns and labels:
HUVEC = test: Antiproliferative activity against HUVEC after 48 hrs by MTT assay; assay type: functional, cell-based; conditions: Homo sapiens
Ishikawa [1] = test: Antiproliferative activity against human Ishikawa cells after 48 hrs by MTT assay; assay type: functional, cell-based
MCF7 [2] = test: Antiproliferative activity against human MCF7 cells after 48 hrs by MTT assay; assay type: functional, cell-based; conditions: MCF7, 48 h
MCF7 [3] = test: Effect on PgR mRNA expression in human MCF7 cells at 1 uM by SYBR Green dye based RT-PCR analysis; assay type: functional, cell-based
[4] = target: Vascular endothelial growth factor receptor 2 (Homo sapiens) (UniProt P35968); conditions: HUVEC, at 1 µM
Description: Inhibition of VEGFR2 phosphorylation in HUVEC at 1 uM after 24 hrs by Western blot analysis

Chorioallantoic membrane = test: Antiangiogenic activity in chicken fertilized egg chorioallantoic membrane at 1 to 20 uM measured after 72 hrs; assay type: functional, tissue-based; conditions: Gallus gallus
Ishikawa [5] = test: Stimulation of cell proliferation in human Ishikawa cells at 10 uM after 48 hrs by MTT assay; assay type: ADME, cell-based
Ishikawa [6] = test: Antiproliferative activity against human Ishikawa cells at >40 uM after 48 hrs by MTT assay; assay type: functional, cell-based

Chain of Vascular endothelial growth factor receptor 2 (Homo sapiens) (P35968 whole entry): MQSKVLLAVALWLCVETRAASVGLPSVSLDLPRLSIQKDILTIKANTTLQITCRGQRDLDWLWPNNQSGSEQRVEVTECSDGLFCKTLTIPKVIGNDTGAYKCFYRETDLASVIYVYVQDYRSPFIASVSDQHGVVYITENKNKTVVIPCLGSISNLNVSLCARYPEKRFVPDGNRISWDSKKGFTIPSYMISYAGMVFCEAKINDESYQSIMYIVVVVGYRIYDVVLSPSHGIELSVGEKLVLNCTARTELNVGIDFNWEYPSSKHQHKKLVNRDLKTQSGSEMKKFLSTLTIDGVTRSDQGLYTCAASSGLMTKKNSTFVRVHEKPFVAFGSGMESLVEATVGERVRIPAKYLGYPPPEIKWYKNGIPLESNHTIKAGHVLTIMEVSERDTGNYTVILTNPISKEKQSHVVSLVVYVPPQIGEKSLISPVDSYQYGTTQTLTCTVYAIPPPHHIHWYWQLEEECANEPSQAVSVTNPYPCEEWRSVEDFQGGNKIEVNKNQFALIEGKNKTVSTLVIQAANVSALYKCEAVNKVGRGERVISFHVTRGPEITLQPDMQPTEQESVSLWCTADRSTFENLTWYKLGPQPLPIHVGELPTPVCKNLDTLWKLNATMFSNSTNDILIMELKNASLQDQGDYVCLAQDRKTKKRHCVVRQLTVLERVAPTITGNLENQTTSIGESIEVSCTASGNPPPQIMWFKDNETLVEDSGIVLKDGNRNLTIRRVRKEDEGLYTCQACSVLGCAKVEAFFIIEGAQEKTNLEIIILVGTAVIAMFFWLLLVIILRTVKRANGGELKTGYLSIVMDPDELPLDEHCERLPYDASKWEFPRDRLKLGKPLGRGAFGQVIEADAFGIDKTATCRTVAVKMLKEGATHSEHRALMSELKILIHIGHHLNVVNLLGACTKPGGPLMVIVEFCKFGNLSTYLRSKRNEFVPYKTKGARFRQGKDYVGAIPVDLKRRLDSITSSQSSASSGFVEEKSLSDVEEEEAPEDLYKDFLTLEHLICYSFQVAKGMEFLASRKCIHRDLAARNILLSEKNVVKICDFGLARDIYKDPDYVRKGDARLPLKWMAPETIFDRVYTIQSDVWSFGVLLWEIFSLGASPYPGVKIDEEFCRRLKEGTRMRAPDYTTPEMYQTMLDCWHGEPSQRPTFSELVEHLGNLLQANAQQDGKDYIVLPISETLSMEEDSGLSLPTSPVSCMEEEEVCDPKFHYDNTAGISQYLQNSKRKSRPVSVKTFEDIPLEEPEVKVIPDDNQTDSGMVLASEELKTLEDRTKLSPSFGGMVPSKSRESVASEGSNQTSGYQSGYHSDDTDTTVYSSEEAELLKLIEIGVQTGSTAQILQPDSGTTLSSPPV

Compound	IC50 (HUVEC) [µM]	IC50 (Ishikawa [1]) [µM]	IC50 (MCF7 [2]) [µM]	Activity (MCF7 [3])	inhibition [4]	Activity (Chorioallantoic membrane)	Activity (Ishikawa [5])	Activity (Ishikawa [6])
CCN(CC)CCOc1ccc(Nc2nc(-c3ccc(O)cc3)cc(-c3ccc(OC)cc3)n2)cc1	3.5	6.4	5.6					
O=C(CN1CCCCC1)Nc1ccc(Nc2nc(-c3ccc(O)cc3)cc(-c3ccc(O)cc3)n2)cc1	7.4	13.5	26.4					
COc1ccc(-c2cc(-c3ccc(O)cc3)nc(Nc3ccc(NC(=O)CN4CCCCC4)cc3)n2)cc1	10.6	1.4	> 100					
CCN(CC)CC(=O)Nc1ccc(Nc2nc(-c3ccc(O)cc3)cc(-c3ccc(OC)cc3)n2)cc1	22	16.4	49					
COc1ccc(-c2cc(-c3ccc(OC)cc3)nc(Nc3ccc(NC(=O)CN4CCN(C)CC4)cc3)n2)cc1	5	5.7	1.8					
Oc1ccc(-c2cc(-c3ccc(O)cc3)nc(Nc3ccc(OCCN4CCOCC4)cc3)n2)cc1	74.9							
COc1ccc(-c2cc(-c3ccc(OC)cc3)nc(Nc3ccc(NC(=O)CN4CCCC4)cc3)n2)cc1	2.5	1.9	2.2	inactive	Active	Active		
Oc1ccc(-c2cc(-c3ccc(O)cc3)nc(Nc3ccc(OCCN4CCCC4)cc3)n2)cc1	4.7	4.5	57					
O=C(CN1CCOCC1)Nc1ccc(Nc2nc(-c3ccc(O)cc3)cc(-c3ccc(O)cc3)n2)cc1	47	60.4	15.6					
COc1ccc(-c2cc(-c3ccc(OC)cc3)nc(Nc3ccc(OCCN4CCCC4)cc3)n2)cc1	2.1	3.9	2.6					
COc1ccc(-c2cc(-c3ccc(O)cc3)nc(Nc3ccc(OCCN(C)C)cc3)n2)cc1	4.7	5.2	3.6					
Oc1ccc(-c2cc(-c3ccc(O)cc3)nc(Nc3ccc(OCCN4CCCCC4)cc3)n2)cc1	4.6	5	6.1					
COc1ccc(-c2cc(-c3ccc(O)cc3)nc(Nc3ccc(NC(=O)CN4CCCC4)cc3)n2)cc1	2.3	5.5	4.5					
CN1CCN(CCOc2ccc(Nc3nc(-c4ccc(O)cc4)cc(-c4ccc(O)cc4)n3)cc2)CC1	2.5	5.4	5.2					
COc1ccc(-c2cc(-c3ccc(O)cc3)nc(Nc3ccc(OCCN4CCN(C)CC4)cc3)n2)cc1	2.4	5.3	4.8					
COc1ccc(-c2cc(-c3ccc(OC)cc3)nc(Nc3ccc(NC(=O)CN4CCOCC4)cc3)n2)cc1			33.1					
COc1ccc(-c2cc(-c3ccc(O)cc3)nc(Nc3ccc(NC(=O)CN(C)C)cc3)n2)cc1	3.8	6.3	3.4					

Compound	IC50 (HUVEC) [µM]	IC50 (Ishikawa [1]) [µM]	IC50 (MCF7 [2]) [µM]	Activity (MCF7 [3])	inhibition [4]	Activity (Chorioallantoic membrane)	Activity (Ishikawa [5])	Activity (Ishikawa [6])
COc1ccc(-c2cc(-c3ccc(O)cc3)nc(Nc3ccc(OCCN4CCCC4)cc3)n2)cc1	3.1	5.9	4.6					
CN(C)CCOc1ccc(Nc2nc(-c3ccc(O)cc3)cc(-c3ccc(O)cc3)n2)cc1	4.7	1.6	19.4					
CCN(CC)CCNC(=O)c1c(C)[nH]c(/C=C2\C(=O)Nc3ccc(F)cc32)c1C [SUNITINIB]	3					Active		
COc1ccc(-c2cc(-c3ccc(O)cc3)nc(Nc3ccc(OCCN4CCCCC4)cc3)n2)cc1	4.5	4.8	17.1					
COc1ccc(-c2cc(-c3ccc(OC)cc3)nc(Nc3ccc(OCCN(C)C)cc3)n2)cc1	4.6	5.1	3.6					
CN(C)CC(=O)Nc1ccc(Nc2nc(-c3ccc(O)cc3)cc(-c3ccc(O)cc3)n2)cc1	60.6	8	39.5					
COc1ccc(-c2cc(-c3ccc(OC)cc3)nc(Nc3ccc(NC(=O)CN(C)C)cc3)n2)cc1	2.8	3.6	2.5					
COc1ccc(-c2cc(-c3ccc(OC)cc3)nc(Nc3ccc(OCCN4CCCCC4)cc3)n2)cc1	5.4	1.9	32.4					
CN1CCN(CC(=O)Nc2ccc(Nc3nc(-c4ccc(O)cc4)cc(-c4ccc(O)cc4)n3)cc2)CC1	6.8	4.9	5.2					
COc1ccc(-c2cc(-c3ccc(O)cc3)nc(Nc3ccc(NC(=O)CN4CCN(C)CC4)cc3)n2)cc1	4.7	4.2	4.1					
CCN(CC)CCOc1ccc(Nc2nc(-c3ccc(OC)cc3)cc(-c3ccc(OC)cc3)n2)cc1	2.2	4.3	5					
O=C(CN1CCCC1)Nc1ccc(Nc2nc(-c3ccc(O)cc3)cc(-c3ccc(O)cc3)n2)cc1	7	8.3	19.7					
CC/C(=C(\c1ccccc1)c1ccc(OCCN(C)C)cc1)c1ccccc1 [TAMOXIFEN]				inactive			Toxic	Active
COc1ccc(-c2cc(-c3ccc(O)cc3)nc(Nc3ccc(NC(=O)CN4CCOCC4)cc3)n2)cc1	10.2	42.2	19.2					
CCN(CC)CCOc1ccc(Nc2nc(-c3ccc(O)cc3)cc(-c3ccc(O)cc3)n2)cc1	2.5	4.8	5.1					
COc1ccc(-c2cc(-c3ccc(OC)cc3)nc(Nc3ccc(OCCN4CCN(C)CC4)cc3)n2)cc1	3	5.7	4.2					
CCN(CC)CC(=O)Nc1ccc(Nc2nc(-c3ccc(O)cc3)cc(-c3ccc(O)cc3)n2)cc1	19	17.3	27					
